Results as given in article PMC9098913, “In vitro reconstitution of Escherichia coli divisome activation” (Nature Communications, 2022).

Test: Diffusion coefficient (Dcoeff) of FtsA from FRAP
Conditions: for Diffusion Coefficient, mean: Fig. 3j; for Dcoeff: Fig. S3i/S3j
Description: We could also use the data from these bleaching experiments to quantify the membrane-binding kinetics and diffusion of membrane-bound proteins by analysing the change of the fluorescence profile during recovery.
Equimolar concentrations of Cy3- and Cy5-labelled FtsA, supplemented with 20% unlabelled FtsA were used to study FRET and FRAP. Five pre-bleach frames were acquired, followed by acceptor photobleaching of a rectangular ROI with 40% 641 nm laser power and a dwell size of 1 µs/pixel, 75% overlapping lines. The recovery of the signal or the increase in donor intensity were measured with either two frames or one frame per second.
Bleaching the acceptor dye leads to an increase in the donor intensity, which can be used to quantify the Foerster Resonance energy transfer (FRET)[48]. FRET efficiency was quantified with E%=Ipost/Ipost+Ipre⋅100 , where Ipost is the intensity of the […] and Ipre is the […]. […] To extract the contribution of both processes, we adjusted a routine recently published by Gerganova et al.[33]. In short, the code provides the contribution of both modes of recovery by analysing the shape of the fluorescence recovery profile. […] Contribution of diffusion leads to a change of the slope of the outer borders of the bleached region (S4h right). Thus, by measuring the change of the slope of the border recovery, diffusion and simple on/off binding can be distinguished. We developed “FRAPdiff”, a graphical user interface, which uses the original fit routine by David Rutkowski. It can be used directly on.tiff movies with annotated bleach regions as ImageJ ROIs. In addition, we added optional bleach correction, user selectable projection axis (x or y), and optional mirroring of the recovery profiles, if bleaching was not symmetric. The original fit routine for estimating the recovery and diffusion dynamics can be found at https://github.com/davidmrutkowski/1DReflectingDiffusion. FRAPdiff is available at 10.5281/zenodo.6400639[49] under the GPLv3 open-source license.

Substance: FtsA WT: wild-type E. coli actin-homologue FtsA, membrane anchor of FtsZ
- Diffusion Coefficient (0.2µM, + FtsZ, replicate Exp.4): 4.01E-02
- Diffusion Coefficient (0.2µM, + FtsZ, replicate Exp.5): 7.03E-05
- Diffusion Coefficient (0.2µM, + FtsZ, replicate Exp.6): 2.65E-03
- Diffusion Coefficient (0.2µM, + FtsZ, replicate Exp.7): 9.70E-04
- Diffusion Coefficient, mean (0.4 µM FtsA + N): 1.74E-03 µm2/s
- Diffusion Coefficient, mean (0.4 µM FtsA + Z&N): 1.31E-03 µm2/s
- Diffusion Coefficient, mean (0.4 µM FtsA + Z): 9.28E-04 µm2/s
- Diffusion Coefficient (0.4µM FtsA alone, Mean, n=18 (WT), 9 (R286W)): 0.0094
- Diffusion Coefficient, mean (0.4 µM FtsA alone): 9.38E-03 µm2/s
- Diffusion Coefficient (0.4µM FtsA alone, replicate Exp.1): 1.66E-03
- Diffusion Coefficient (0.4µM FtsA alone, replicate Exp.10): 2.61E-04
- Diffusion Coefficient (0.4µM FtsA alone, replicate Exp.11): 2.61E-03
- Diffusion Coefficient (0.4µM FtsA alone, replicate Exp.12): 1.80E-02
- Diffusion Coefficient (0.4µM FtsA alone, replicate Exp.13): 3.92E-03
- Diffusion Coefficient (0.4µM FtsA alone, replicate Exp.14): 4.91E-02
- Diffusion Coefficient (0.4µM FtsA alone, replicate Exp.15): 1.40E-02
- Diffusion Coefficient (0.4µM FtsA alone, replicate Exp.16): 4.71E-05
- Diffusion Coefficient (0.4µM FtsA alone, replicate Exp.17): 6.43E-03
- Diffusion Coefficient (0.4µM FtsA alone, replicate Exp.18): 3.05E-04
- Diffusion Coefficient (0.4µM FtsA alone, replicate Exp.2): 7.21E-03
- Diffusion Coefficient (0.4µM FtsA alone, replicate Exp.3): 3.35E-02
- Diffusion Coefficient (0.4µM FtsA alone, replicate Exp.4): 6.07E-07
- Diffusion Coefficient (0.4µM FtsA alone, replicate Exp.5): 4.86E-04
- Diffusion Coefficient (0.4µM FtsA alone, replicate Exp.6): 1.29E-02
- Diffusion Coefficient (0.4µM FtsA alone, replicate Exp.7): 1.54E-02
- Diffusion Coefficient (0.4µM FtsA alone, replicate Exp.8): 3.15E-04
- Diffusion Coefficient (0.4µM FtsA alone, replicate Exp.9): 2.76E-03
- Diffusion Coefficient (0.4 µM FtsA, FRAP, p-value […] 10^−6): 0.01 ± 0.01 µm^2/s
- Diffusion Coefficient (0.4µM, + FtsN&Z, Mean, n=6 (WT), 9 (R286W)): 0.0013
- Diffusion Coefficient (0.4µM, + FtsN&Z, replicate Exp.1): 7.97E-04
- Diffusion Coefficient (0.4µM, + FtsN&Z, replicate Exp.2): 2.09E-03
- Diffusion Coefficient (0.4µM, + FtsN&Z, replicate Exp.3): 9.40E-04
- Diffusion Coefficient (0.4µM, + FtsN&Z, replicate Exp.4): 3.16E-04
- Diffusion Coefficient (0.4µM, + FtsN&Z, replicate Exp.5): 3.44E-03
- Diffusion Coefficient (0.4µM, + FtsN&Z, replicate Exp.6): 3.02E-04
- Diffusion Coefficient (0.4µM, + FtsN, Mean, n=5 (WT), 6 (R286W)): 0.0017
- Diffusion Coefficient (0.4µM, + FtsN, replicate Exp.1): 1.54E-03
- Diffusion Coefficient (0.4µM, + FtsN, replicate Exp.2): 2.97E-03
- Diffusion Coefficient (0.4µM, + FtsN, replicate Exp.3): 2.28E-03
- Diffusion Coefficient (0.4µM, + FtsN, replicate Exp.4): 1.80E-03
- Diffusion Coefficient (0.4µM, + FtsN, replicate Exp.5): 1.27E-04
- Diffusion Coefficient (0.4µM, + FtsZ, Mean, n=5 (WT), 8 (R286W)): 0.0009
- Diffusion Coefficient (0.4µM, + FtsZ, replicate Exp.1): 1.81E-03
- Diffusion Coefficient (0.4µM, + FtsZ, replicate Exp.2): 9.21E-04
- Diffusion Coefficient (0.4µM, + FtsZ, replicate Exp.3): 2.54E-06
- Diffusion Coefficient (0.4µM, + FtsZ, replicate Exp.4): 1.48E-07
- Diffusion Coefficient (0.4µM, + FtsZ, replicate Exp.5): 1.91E-03
- Diffusion Coefficient, mean (0.8 µM FtsA + N): 2.78E-04 µm2/s
- Diffusion Coefficient, mean (0.8 µM FtsA + Z&N): 1.55E-03 µm2/s
- Diffusion Coefficient, mean (0.8 µM FtsA + Z): 1.98E-04 µm2/s
- Diffusion Coefficient (0.8µM FtsA alone, Mean, n=19 (WT), 8 (R286W)): 0.0008
- Diffusion Coefficient, mean (0.8 µM FtsA alone): 8.23E-04 µm2/s
- Diffusion Coefficient (0.8µM FtsA alone, replicate Exp.1): 7.29E-03
- Diffusion Coefficient (0.8µM FtsA alone, replicate Exp.10): 4.22E-07
- Diffusion Coefficient (0.8µM FtsA alone, replicate Exp.11): 6.76E-05
- Diffusion Coefficient (0.8µM FtsA alone, replicate Exp.12): 1.41E-04
- Diffusion Coefficient (0.8µM FtsA alone, replicate Exp.13): 9.30E-04
- Diffusion Coefficient (0.8µM FtsA alone, replicate Exp.14): 4.15E-06
- Diffusion Coefficient (0.8µM FtsA alone, replicate Exp.15): 1.75E-03
- Diffusion Coefficient (0.8µM FtsA alone, replicate Exp.16): 1.00E-03
- Diffusion Coefficient (0.8µM FtsA alone, replicate Exp.17): 1.78E-04
- Diffusion Coefficient (0.8µM FtsA alone, replicate Exp.18): 3.36E-03
- Diffusion Coefficient (0.8µM FtsA alone, replicate Exp.19): 2.24E-04
- Diffusion Coefficient (0.8µM FtsA alone, replicate Exp.2): 2.12E-04
- Diffusion Coefficient (0.8µM FtsA alone, replicate Exp.3): 6.52E-08
- Diffusion Coefficient (0.8µM FtsA alone, replicate Exp.4): 1.44E-04
- Diffusion Coefficient (0.8µM FtsA alone, replicate Exp.5): 5.47E-08
- Diffusion Coefficient (0.8µM FtsA alone, replicate Exp.6): 4.93E-07
- Diffusion Coefficient (0.8µM FtsA alone, replicate Exp.7): 2.75E-04
- Diffusion Coefficient (0.8µM FtsA alone, replicate Exp.8): 6.96E-06
- Diffusion Coefficient (0.8µM FtsA alone, replicate Exp.9): 4.32E-05
- Diffusion Coefficient (0.8µM, + FtsN&Z, Mean, n=5 (WT), 4 (R286W)): 0.0015
- Diffusion Coefficient (0.8µM, + FtsN&Z, replicate Exp.1): 2.13E-03
- Diffusion Coefficient (0.8µM, + FtsN&Z, replicate Exp.2): 1.07E-06
- Diffusion Coefficient (0.8µM, + FtsN&Z, replicate Exp.3): 6.03E-04
- Diffusion Coefficient (0.8µM, + FtsN&Z, replicate Exp.4): 3.04E-03
- Diffusion Coefficient (0.8µM, + FtsN&Z, replicate Exp.5): 1.98E-03
- Diffusion Coefficient (0.8µM, + FtsN, Mean, n=4 (WT), 3 (R286W)): 0.000278
- Diffusion Coefficient (0.8µM, + FtsN, replicate Exp.1): 2.14E-05
- Diffusion Coefficient (0.8µM, + FtsN, replicate Exp.2): 6.16E-05
- Diffusion Coefficient (0.8µM, + FtsN, replicate Exp.3): 1.34E-04
- Diffusion Coefficient (0.8µM, + FtsN, replicate Exp.4): 8.93E-04
- Diffusion Coefficient (0.8µM, + FtsZ, Mean, n=3 (WT), 8 (R286W)): 0.0002
- Diffusion Coefficient (0.8µM, + FtsZ, replicate Exp.1): 7.26E-07
- Diffusion Coefficient (0.8µM, + FtsZ, replicate Exp.2): 4.83E-04
- Diffusion Coefficient (0.8µM, + FtsZ, replicate Exp.3): 1.10E-04
- Dcoeff (0.10 µM FtsA, replicate 1): 5.58E-02 µm2/s
- Dcoeff (0.10 µM FtsA, replicate 2): 3.42E-03 µm2/s
- Dcoeff (0.10 µM FtsA, replicate 3): 1.87E-02 µm2/s
- Dcoeff (0.10 µM FtsA, replicate 4): 5.22E-02 µm2/s
- Dcoeff (0.10 µM FtsA, summary value): 2.68E-02 µm2/s
- Dcoeff (0.20 µM FtsA, summary value): 1.77E-02 µm2/s
- Dcoeff (0.40 µM FtsA, summary value): 9.38E-03 µm2/s
- Dcoeff (0.80 µM FtsA, summary value): 8.23E-04 µm2/s
